According to patent US7538123B2, “Indole derivative having piperidine ring” (Eisai R & D Management Co., Ltd., priority 2004, dated 2009):
Like-named read-outs stand apart in the source and are kept apart here.

Target: T1, serotonin 1A receptor (Mus musculus, UniProt Q64264)
T1 construct: into the rectum of CD-1 (ICR) male mice (25-45 g); from tissue; host or cells: living CD-1 (ICR) male mice (whole animal)
T1 sequence (Q64264 1-421): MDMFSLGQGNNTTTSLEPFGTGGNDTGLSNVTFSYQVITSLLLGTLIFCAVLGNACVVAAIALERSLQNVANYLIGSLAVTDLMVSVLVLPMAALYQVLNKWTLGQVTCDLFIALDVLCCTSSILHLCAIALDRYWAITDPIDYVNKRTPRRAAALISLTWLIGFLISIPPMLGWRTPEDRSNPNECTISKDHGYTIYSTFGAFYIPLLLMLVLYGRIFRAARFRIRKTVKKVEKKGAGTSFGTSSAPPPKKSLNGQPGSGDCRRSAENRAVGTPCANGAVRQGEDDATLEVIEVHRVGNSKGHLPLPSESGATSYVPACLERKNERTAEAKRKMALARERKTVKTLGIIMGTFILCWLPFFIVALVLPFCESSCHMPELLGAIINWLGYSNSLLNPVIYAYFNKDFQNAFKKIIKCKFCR
Assay: Antagonistic effect on serotonin 1A receptor agonist-induced hypothermia in mouse
Format: in vivo
Conditions: sc
Procedure: (1) A thermistor probe was inserted at a depth of approximately 2 cm into the rectum of CD-1 (ICR) male mice (25-45 g), so as to measure the body temperature thereof. Body temperature is decreased by subcutaneous administration of serotonin 1A receptor agonist (8-hydroxy-dipropylaminotetralin) 0.5 mg/kg. Since a serotonin 1A antagonist inhibits such action, the antagonistic effect of a test substance to a serotonin 1A receptor was evaluated using the inhibitory effect of the hypothermia as an index. A test substance was administered 15 minutes before the administration of the serotonin 1A agonist. A serotonin 1A partial agonist alone decreases the body temperature, depending on the degree of the agonistic action thereof. In addition, it has a weak antagonistic effect on 8-hydroxy-dipropylaminotetralin-induced hypothermia. (2) Results

[1] = 15 minutes before 8-hydroxy-dipropylaminotetralin 0.5 mg/kg sc, inhibition of hypothermia, CD-1 (ICR) male mice, read-out: ED50

ED50 [1] [mg/kg]	SMILES	ED50 [mg/kg]
0.02	COc1cc2nc(C)sc2cc1CCN1CCC(n2ccc3ccc(C(N)=O)cc32)CC1 [Compound 28, 1-{1-[2-(5-methoxy-2-methylbenzothiazol-6-yl)ethyl]piperidin-4-yl}-1H-indole-6-carboxamide]	
0.2	COc1ccc2c(=O)c(C)c(C)oc2c1CCN1CCC(n2ccc3ccc(C(N)=O)cc32)CC1 [Compound 36, 1-{1-[2-(7-methoxy-2,3-dimethyl-4-oxo-4H-chromen-8-yl)ethyl]piperidin-4-yl}-1H-indole-6-carboxamide]	
0.21	COc1ccc2c(c1CCN1CCC(n3ccc4ccc(C(N)=O)cc43)CC1)OCCC2=O [Compound 47, 1-{1-[2-(7-methoxy-4-oxochroman-8-yl)ethyl]piperidin-4-yl}-1H-indole-6-carboxamide]	
0.35	CCc1nc2cc(CCN3CCC(n4ccc5ccc(C(N)=O)cc54)CC3)c(OC)cc2o1 [Compound 6, 1-{1-[2-(2-ethyl-6-methoxybenzoxazol-5-yl)ethyl]piperidin-4-yl}-1H-indole-6-carboxamide]	
0.62	COc1ccc2ncccc2c1CCN1CCC(n2ccc3ccc(C(N)=O)cc32)CC1 [Compound 30, 1-{1-[2-(6-methoxyquinolin-5-yl)ethyl]piperidin-4-yl}-1H-indole-6-carboxamide]	
	CNC(=O)c1ccc2ccn(C3CCN(CCc4c(OC)ccc5c4OC(C)(C)CC5O)CC3)c2c1 (stereo not drawn) [Compound 48, 1-{1-[2-(4-hydroxy-7-methoxy-2,2-dimethylchroman-8-yl)ethyl]piperidin-4-yl}-N-methyl-1H-indole-6-carboxamide]	0.06
0.12	COc1cc2c(cc1CCN1CCC(n3ccc4ccc(C(N)=O)cc43)CC1)C(=O)N(C)CC2 [Compound 33, 1-{1-[2-(6-methoxy-2-methyl-1-oxo-1,2,3,4-tetrahydroisoquinolin-7-yl)ethyl]piperidin-4-yl}-1H-indole-6-carboxamide]	
0.1	COc1cc2oc(C)nc2cc1CCN1CCC(n2ccc3ccc(C(N)=O)cc32)CC1 [Compound 4, 1-{1-[2-(6-methoxy-2-methylbenzoxazol-5-yl)ethyl]piperidin-4-yl}-1H-indole-6-carboxamide]	
0.52	CCn1c(=O)oc2cc(OC)c(CCN3CCC(n4ccc5ccc(C(N)=O)cc54)CC3)cc21 [Compound 60, 1-{1-[2-(3-ethyl-6-methoxy-2-oxo-2,3-dihydrobenzoxazol-5-yl)ethyl]piperidin-4-yl}-1H-indole-6-carboxamide]	
0.41	COc1ccc2ccccc2c1CCN1CCC(n2ccc3ccc(C(N)=O)cc32)CC1 [Compound 44, 1-{1-[2-(2-methoxynaphthalen-1-yl)ethyl]piperidin-4-yl}-1H-indole-6-carboxamide]	
0.25	COc1cc2c(cc1CCN1CCC(n3ccc4ccc(C(N)=O)cc43)CC1)C(=O)CC2 [Compound 26, 1-{1-[2-(6-methoxy-3-oxoindan-5-yl)ethyl]piperidin-4-yl}-1H-indole-6-carboxamide]	
0.04	COc1ccc2c(c1CCN1CCC(n3ccc4ccc(C(N)=O)cc43)CC1)OCCO2 [Compound 32, 1-{1-[2-(6-methoxy-2,3-dihydrobenz[1,4]dioxin-5-yl)ethyl]piperidin-4-yl}-1H-indole-6-carboxamide]	
0.1	COc1cc2c(cc1CCN1CCC(n3ccc4ccc(C(N)=O)cc43)CC1)N(C)C(=O)CC2 [Compound 57, 1-{1-[2-(6-methoxy-1-methyl-2-oxo-1,2,3,4-tetrahydroquinolin-7-yl)ethyl]piperdin-4-yl}-1H-indole-6-carboxamide]	
0.3	COc1cc2c(cc1CCN1CCC(n3ccc4ccc(C(N)=O)cc43)CC1)N(C)CCC2 [Compound 53, 1-{1-[2-(6-methoxy-1-methyl-1,2,3,4-tetrahydroquinolin-7-yl)ethyl]piperidin-4-yl}-1H-indole-6-carboxamide]	
0.42	COc1ccc2sc(C)nc2c1CCN1CCC(n2ccc3ccc(C(N)=O)cc32)CC1 [Compound 27, 1-{1-[2-(5-methoxy-2-methylbenzothiazol-4-yl)ethyl]piperidin-4-yl}-1H-indole-6-carboxamide]	
	COc1cc2cccnc2cc1CCN1CCC(n2ccc3ccc(C(N)=O)cc32)CC1 [Compound 51, 1-{1-[2-(6-methoxyquinolin-7-yl)ethyl]piperidin-4-yl}-1H-indole-6-carboxamide]	0.66
0.04	COc1cc2c(cc1CCN1CCC(n3ccc4ccc(C(N)=O)cc43)CC1)OCCO2 [Compound 31, 1-{1-[2-(7-methoxy-2,3-dihydrobenz[1,4]dioxin-6-yl)ethyl]piperidin-4-yl}-1H-indole-6-carboxamide]	

ED50 [1] [mg/kg]	SMILES	ED50 [mg/kg]
0.3	COc1cc2c(cc1CCN1CCC(n3ccc4ccc(C(N)=O)cc43)CC1)C(=O)CC(C)(C)O2 [Compound 24, 1-{1-[2-(7-methoxy-2,2-dimethyl-4-oxochroman-6-yl)ethyl]piperidin-4-yl}-1H-indole-6-carboxamide]	
0.38	COc1ccc2oc(C)nc2c1CCN1CCC(n2ccc3ccc(C(N)=O)cc32)CC1 [Compound 7, 1-{1-[2-(5-methoxy-2-methylbenzoxazol-4-yl)ethyl]piperidin-4-yl}-1H-indole-6-carboxamide]	
0.3	COc1ccc2c(c1CCN1CCC(n3ccc4ccc(C(N)=O)cc43)CC1)OCCC2O (stereo not drawn) [Compound 46, 1-{1-[2-(4-hydroxy-7-methoxychroman-8-yl)ethyl]piperidin-4-yl}-1H-indole-6-carboxamide]	
0.18	COc1ccc2nc(C)oc2c1CCN1CCC(n2ccc3ccc(C(N)=O)cc32)CC1 [Compound 3, 1-{1-[2-(6-methoxy-2-methylbenzoxazol-7-yl)ethyl]piperidin-4-yl}-1H-indole-6-carboxamide]	
0.24	CCc1nc2ccc(OC)c(CCN3CCC(n4ccc5ccc(C(N)=O)cc54)CC3)c2o1 [Compound 5]	
0.28	COc1ccc2c(c1CCN1CCC(n3ccc4ccc(C(N)=O)cc43)CC1)CCC2O (stereo not drawn) [Compound 49, 1-{1-[2-(1-hydroxy-5-methoxyindan-4-yl)ethyl]piperidin-4-yl}-1H-indole-6-carboxamide]	
0.5	COc1cc2c(cc1CCN1CCC(n3ccc4ccc(C(N)=O)cc43)CC1)N(C(C)=O)CCC2 [Compound 52, 1-{1-[2-(1-acetyl-6-methoxy-1,2,3,4-tetrahydroquinolin-7-yl)ethyl]piperidin-4-yl}-1H-indole-6-carboxamide]	
0.19	CNC(=O)c1ccc2ccn(C3CCN(CCc4cc5c(cc4OC)CCN(C)C5=O)CC3)c2c1 [Compound 38, 1-{1-[2-(6-methoxy-2-methyl-1-oxo-1,2,3,4-tetrahydroisoquinolin-7-yl)ethyl]piperidin-4-yl}-N-methyl-1H-indole-6-carboxamide]	
0.84	COc1ccc2c(c1CCN1CCC(n3ccc4ccc(C(N)=O)cc43)CC1)CCCN2C(C)=O [Compound 54, 1-{1-[2-(1-acetyl-6-methoxy-1,2,3,4-tetrahydroquinolin-5-yl)ethyl]piperidin-4-yl}-1H-indole-6-carboxamide]	
0.37	COc1ccc2c(c1CCN1CCC(n3ccc4ccc(C(N)=O)cc43)CC1)CCN(C)C2=O [Compound 34, 1-(1-(2-(6-methoxy-2-methyl-1-oxo-1,2,3,4-tetrahydroisoquinolin-5-yl)ethyl)piperidin-4-yl)-1H-indole-6-carboxamide]	
	COc1ccc2c(C)noc2c1CCN1CCC(n2ccc3ccc(C(N)=O)cc32)CC1 [Compound 1, 1-{1-[2-(6-methoxy-3-methylbenz[d]isoxazol-7-yl)ethyl]piperidin-4-yl}-1H-indole-6-carboxamide]	0.3
0.3	CCN1C(=O)CCc2cc(OC)c(CCN3CCC(n4ccc5ccc(C(N)=O)cc54)CC3)cc21 [Compound 59, 1-{1-[2-(1-ethyl-6-methoxy-2-oxo-1,2,3,4-tetrahydroquinolin-7-yl)ethyl]piperidin-4-yl}-1H-indole-6-carboxamide]	
0.3	COc1cc2c(cc1CCN1CCC(n3ccc4ccc(C(N)=O)cc43)CC1)C(=O)N(C)CCO2 [Compound 9, 1-{1-[2-(8-methoxy-4-methyl-5-oxo-2,3,4,5-tetrahydrobenzo[f][1,4]oxazepin-7-yl)ethyl]piperidin-4-yl}-1H-indole-6-carboxamide]	
0.4	COc1cc2onc(C)c2cc1CCN1CCC(n2ccc3ccc(C(N)=O)cc32)CC1 [Compound 2, 1-{1-[2-(6-methoxy-3-methylbenzo[d]isoxazol-5-yl)ethyl]piperidin-4-yl}-1H-indole-6-carboxamide]	
0.2	COc1ccc2c(=O)ccoc2c1CCN1CCC(n2ccc3ccc(C(N)=O)cc32)CC1 [Compound 35, 1-{1-[2-(7-methoxy-4-oxo-4H-chromen-8-yl)ethyl]piperidin-4-yl}-1H-indole-6-carboxamide]	
0.26	COc1cc2ccccc2cc1CCN1CCC(n2ccc3ccc(C(N)=O)cc32)CC1 [Compound 45, 1-{1-[2-(3-methoxynaphthalen-2-yl)ethyl]piperidin-4-yl}-1H-indole-6-carboxamide]	
